Reference: BindingDB's records for doi:10.1021/acs.jmedchem.0c00964 (Philipps-University, 2020)

target: T1, Orexin/Hypocretin receptor type 1 (Homo sapiens, UniProt O43613); assay: Displacement of [3H]-[…] from human orexin 1 receptor expressed in CHO cells incubated for 2 hrs by whole cell radioligand binding assay
T1 sequence (O43613 whole entry): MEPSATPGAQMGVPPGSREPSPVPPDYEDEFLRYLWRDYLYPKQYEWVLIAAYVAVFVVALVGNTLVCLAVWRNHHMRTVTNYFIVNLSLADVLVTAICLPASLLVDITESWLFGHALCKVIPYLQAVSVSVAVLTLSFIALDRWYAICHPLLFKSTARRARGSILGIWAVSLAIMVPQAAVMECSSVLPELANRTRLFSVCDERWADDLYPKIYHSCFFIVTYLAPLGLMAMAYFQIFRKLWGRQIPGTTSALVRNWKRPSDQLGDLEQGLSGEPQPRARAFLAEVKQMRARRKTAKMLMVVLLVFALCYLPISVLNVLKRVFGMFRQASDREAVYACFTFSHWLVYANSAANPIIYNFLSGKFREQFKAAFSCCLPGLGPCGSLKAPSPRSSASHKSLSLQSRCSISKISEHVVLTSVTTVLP

Point of comparison: `O=C1NC(=O)C(=Cc2c(OCc3ccccc3F)ccc3ccccc23)C(=O)N1`, Ki 33.1 µM. Against it:
- COc1ccc(C(=O)Oc2cc(=O)n(-c3ccccc3)c3c2CCCC3)cc1 — within 1.5-fold, 24.5 µM
- O=C1CCCN1c1cccc(C(=O)N(Cc2ccc(F)cc2)C2CC2)c1 — within 1.5-fold, 32.4 µM
- O=C(/C=C/c1cccc(F)c1)N1CCOc2c(cc(-c3cccnc3)cc2OC[C@H]2CCCCO2)C1 — 1.5-fold lower, 21.4 µM
- O=C(c1sc2cccc(F)c2c1Cl)N1CCN(Cc2ccco2)CC1 — within 1.5-fold, 43.7 µM
